Experimental data taken from patent US7985434B2, “Compositions of atomized or lyophilized maca (Lepidium meyenii) extracts and atomized or lyophilized yacon (Smallanthus sanchifolius) extracts as adjuvants in the treatment of different conditions” (Universidad Peruana Cayetano Heredia, priority 2009, dated 2011).

How the values were obtained:
spermatozoids [1] = assay: Count or daily production of spermatozoids (synthetic macamide); type: in vivo; conditions: inventors' laboratory (Gonzales, 2006 page 104)
Excerpt: (§1) In the inventors' laboratory, the effect of a synthetic macamide, N-benzyl-5-oxo-6E, 8E-octadecadienamide, has been tested, which had no effect in the count or daily production of spermatozoids (Gonzales, 2006 page 104). […] Most of the biological activity is rather found in the more polar fractions (Gonzales, 2006; 2006a; Valerio & Gonzales, 2005).

spermatozoids [2] = assay: Number of spermatozoids in mice; type: in vivo
Excerpt: as §1

Bacillus subtilis = conditions: between six sesquiterpene lactones tested; cited from earlier work

## CCCCCCCCC/C=C/C=C/C(=O)CCCC(=O)NCc1ccccc1 [N-benzyl-5-oxo-6E, 8E-octadecadienamide]
Spermatozoids [1]
  effect in the count or daily production of spermatozoids: no effect

## CCCCCCCCCCCCCCCC(=O)NCc1ccccc1 [N-benzyl-hexadecanamide]
Spermatozoids [2]
  effect on the number of spermatozoids: not been observed

## Fluctuanine
Bacillus subtilis
  antibacterial activity: greatest antibacterial activity
